Measured values: PubChem BioAssay (NCI)
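Method: 48-hour compound exposure of cells in 96-well plates, five concentrations, linear interpolation of endpoints. TGI: concentration producing complete growth inhibition.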

How the values were obtained:
Test in all cases: growth of human tumour cells (NCI), 48 h
[1] = system: 786-0 renal
[2] = system: BT-549 breast
[3] = system: CCRF-CEM leukemia
[4] = system: HCT-116 colon
[5] = system: LOX IMVI melanoma
[6] = system: MDA-MB-435
[7] = system: NCI-H522 lung
[8] = system: PC-3 prostate
[9] = system: SF-268 CNS
[10] = system: SN12C renal
[11] = system: SR leukemia
[12] = system: SW-620 colon
[13] = system: UACC-62 melanoma
[14] = system: MALME-3M melanoma

Row | Structure (SMILES) | TGI [1] [µM] | TGI [2] [µM] | TGI [3] [µM] | TGI [4] [µM] | TGI [5] [µM] | TGI [6] [µM] | TGI [7] [µM] | TGI [8] [µM] | TGI [9] [µM] | TGI [10] [µM] | TGI [11] [µM] | TGI [12] [µM] | TGI [13] [µM] | TGI [14] [µM]
1 | Nc1ncnc2c1ncn2[C@@H]1O[C@H](COC(c2ccccc2)(c2ccccc2)c2ccccc2)[C@@H](OC(=S)Oc2ccccc2)[C@@H]1F | 15.9 | 19.9 | 8.55 | 13.8 | 14.1 | 19.1 | 5.32 | 15.2 | 12.4 | 15.1 | 8.24 | 29.7 | 29.7 | 
2 | CCCn1c(=O)c(N2CCN(c3ccccc3)CC2)nc2sc3ccccc3c21 | > 100 | > 100 | > 100 | > 100 | > 100 | > 100 | > 100 | > 100 | > 100 | > 100 |  | > 100 | > 100 | > 100
3 | CCN(CC)c1nnc(CCCCCCCCc2nnc(N(CC)CC)o2)o1 | > 100 | > 100 | > 100 | > 100 | > 100 | > 100 | > 100 | > 100 | > 100 | > 100 |  | > 100 |  | > 100
4 | OC(c1cccnc1Cl)c1nc2ccccc2c2ccnc(Cl)c12 (stereo not given) |  | > 100 |  | > 100 | > 100 | 4.89 | 5.92 | 69.1 | > 100 | 45.8 | 17.7 | > 100 | 23.7 | 78.2
5 | CN=C(Nc1cccc(C(F)(F)F)c1)SCc1ccc(N=C=S)cc1 | 31 |  | > 100 | 29 | 18.4 | 27 | 22.4 | 29.4 | 73.3 | 26.9 | 40.4 | 41 | 24.6 | 27.8
6 | CCOC(=O)c1c[nH]c2ccc3c(c2c1=O)S(=O)(=O)CC3 (tested in a mixture with another compound) |  |  | > 100 | > 100 | > 100 |  | > 100 |  | > 100 | > 100 |  | > 100 | > 100 | > 100
7 | N#CCCC1(CCC#N)CCCCCCCCC(CCC#N)(CCC#N)C(O)C1O (stereo not given) | > 100 |  |  | > 100 | > 100 | > 100 | > 100 | > 100 | > 100 | > 100 |  | > 100 | > 100 | > 100
8 | C=C1CC[C@@H](C)[C@](C)(CCc2ccoc2)C/C=C\C=C/1C(=O)O | > 100 | 49.1 | 90.3 | 54.6 | 57 | > 100 |  | > 100 |  | > 100 | 59.2 | > 100 | > 100 | > 100
9 | Cc1cnc2c(c1C)C(=O)c1ccccc1C2=O | > 100 | > 100 | > 100 | > 100 |  | 39.1 | > 100 | > 100 | > 100 | > 100 | > 100 | > 100 |  | 
10 | CC(C)(C)OC(=O)NCCCCC(N)NC(=O)c1ccccc1 (stereo not given) | > 100 | > 100 | > 100 | > 100 | > 100 | > 100 | > 100 | > 100 | > 100 | > 100 |  | > 100 | > 100 | > 100
11 | CO/N=C1/c2sccc2[C@H](NC(=O)C(Cc2ccccc2)NC(=O)OC(C)(C)C)[C@@H]1O (stereo not given in full) |  | > 100 | > 100 | > 100 | > 100 | > 100 |  | > 100 | > 100 | > 100 | > 100 | > 100 | > 100 | > 100
12 | Cn1c(=O)n2n(c1=O)C(C)(C13CC4CC(CC(C4)C1)C3)C13CC4CC(CC1C4)CC23 (stereo not given) |  | > 100 | > 100 |  |  | > 100 |  | > 100 | > 100 | > 100 | > 100 | > 100 | > 100 | 
13 | COc1cc2c3c([nH]c2c(OC)c1OC)CCN(Cc1ccccc1)C3 | > 100 |  | > 100 | > 100 | 32.1 | 35 | > 100 | > 100 | > 100 | > 100 |  | > 100 | > 100 | 38.1
14 | C[N+](C)(C)c1ncnc2c1ncn2C1CCCO1 (stereo not given) | > 100 | > 100 | > 100 | > 100 |  | > 100 | > 100 | > 100 | > 100 | > 100 |  | > 100 | > 100 | > 100
15 | CCCCCCCCCCCC[N+](CCCCCCCCCCCC)=C1SCCS1 | 11.8 |  |  | 10.9 | 4.52 |  | 19.5 |  | 21.5 | 14.6 | 15.2 | 10.1 | 22.9 | 19.1
16 | O=C1CCCC/C1=C\c1ccc(Cl)c(Cl)c1 |  |  | 58.7 | 31.9 | 34.7 |  |  |  | 59.4 | 31 |  | 50.7 | 63.6 | 
17 | COc1cccc(/N=N/C(=NNC(=O)c2ccc(C)cc2)c2ccc(N(C)C)cc2)c1 | > 100 | > 100 | > 100 | > 100 | > 100 | > 100 | > 100 | > 100 | > 100 | > 100 | > 100 | > 100 |  | 
18 | O=C1NC2CCCCCC2C12CCCCC2 (stereo not given) |  |  | > 100 | > 100 | > 100 |  |  |  | > 100 | > 100 | > 100 | > 100 | > 100 | > 100
19 | CSc1c(C#N)c(N)n(-c2ccc(Cl)cc2)c(=O)c1C#N | > 100 | > 100 |  | > 100 | > 100 | > 100 | > 100 | > 100 | > 100 | > 100 | > 100 | > 100 | > 100 | > 100
